Measurements published in US4670469A, “Hydroxamic acid and pharmaceutical preparations containing the same” (VEB Arzneimittelwerk Dresden, priority 1983, dated 1987).
Like-named read-outs stand apart in the source and are kept apart here.

Legend:
[1] = system: guinea pig lung strips; assay: Arachidonic acid-induced spasm of isolated guinea pig lung strips; conditions: active substance 100 μM
Source text: They display in animal experimental tests on isolated lung strips from guinea pigs a pronounced antiasthmatic effect. The testing of the mentioned pharmacological characteristics follows according to the principles of measuring techniques known from the literature, which come into use in modified form (G. M. Drazen et al. G. Clin. Invest. 63 1 (1979); M. W. Schneider and G. M. Drazen Amer. Rev. Resp. Dis. 121 835 (1980); S. S. Yen and W. Kreutner, Agents Actions 10 274 (1980); S. S. Yen Prostaglandins 22, 183 (1981)).
The compounds of Formula I effect a significant restraint on arachidonic acid-induced bronchial constriction (1.5.10^-5 M arachidonic acid) in the guinea pig lung preparations (see, Example 6). Also with the addition of a cyclooxygenase inhibitor to the measuring system this effect was unaltered, and to some extent stronger, detectably. These experimental results permit without a doubt the conclusion that the compounds of Formula I involve inhibitors of the lipoxygerase pathway of arachidonic utilization, and the above described pharmacological effect is grounded upon this mechanism of activity.
The testing of the compounds for antiasthmatic activity follows on isolated lung strips and isolated tracheal rings from guinea pigs according to measuring methods known from the literature (supra) in modified form. The measurements follow in thermostatically controlled organ bath, isotonically using a contraction measuring arrangement with lift receiver, measuring coil, measuring amplifier (inductive measurement with the aid of a high frequency resonant circuit). The gasification follows with air. The suspension solution has the following composition: 39.46 g NaCl, 2.2 g KCl, 6.07 g Tris, 1.0 g CaCl2, 9.9 g glucose, 1.0 ml saturated MgCl2 -solution, 43 ml 1N HCl; pH 7.4.
(a) Activity on spasm of the guinea pig lung strips, induced by exogenous arachidonic acid.
The spasm is triggered by rising concentrations of arachidonic acid (concentrated solution in ethanol, stored in N2 -atmosphere) and is cumulatively measured. […] The active substance caused a highly significant displacement to the right of the Dose-Activity curves for arachidonic acid, visible by a clear elevation of the ED50 - and ED84 -values. The effect can be described through the following activity index: [formula] In an analogous manner, the index i84 is determined from the measured data.

[2] = target: lipoxygenase from peas; assay: Inhibition of lipoxygenase from peas; assay type: biochemical; conditions: read-out: I50
Description: The inhibition of thrombocyte aggregation is likewise ascribed to the inhibition of lipoxygenase in the cells. It has thus been shown that the arachidonate-lipoxygenase activity of a microsome-free lysate of human thrombocyte concentrates is inhibited to the extent of 100% by means of 0.25 mM salicylhydroxamic acid. Moreover, it has been shown that also a series of further lipoxygenases are inhibited by means of the here described hydroxamic acids. The lipoxygenase from soybeans reacts the most insensitive, i.e. it is inhibited by means of 1 mM salicylhydroxamic acid at pH 7.4 to an extent of 60% and by means of 0.4 mM 2-hydroxy-1-napthylhydroxamic acid to an extent of 54%. In contrast, for the lipoxygenase from peas which come closer in their characteristics to human lipoxygenase, the following I50 -values are provided: salicyl hydroxamic acid, 5 μM, 2-hydroxy-1-napthylhydroxamic acid, 2 μM, 2(2'-napthoxy)-acethydroxamic acid, 2 μM. Moreover it has been shown that the formation lipoxygenase products of arachidonic acid in in vitro cultivated aorta endothelial cells of calves is hindered through 0.1 mM 2-hydroxy-1-napthylhydroxamic acids.

[3] = target: T1, lipoxygenase from rabbit reticulocytes (Oryctolagus cuniculus, UniProt P12530); assay: Inhibition of the activity of lipoxygenase from rabbit reticulocytes (oxygen consumption, Clark electrode); assay type: biochemical
T1 construct: The lipoxygenase from rabbit reticulocytes is obtained in electrophoretically and immunologically pure form; from tissue; host or cells: rabbit reticulocytes
T1 sequence (P12530 1-663): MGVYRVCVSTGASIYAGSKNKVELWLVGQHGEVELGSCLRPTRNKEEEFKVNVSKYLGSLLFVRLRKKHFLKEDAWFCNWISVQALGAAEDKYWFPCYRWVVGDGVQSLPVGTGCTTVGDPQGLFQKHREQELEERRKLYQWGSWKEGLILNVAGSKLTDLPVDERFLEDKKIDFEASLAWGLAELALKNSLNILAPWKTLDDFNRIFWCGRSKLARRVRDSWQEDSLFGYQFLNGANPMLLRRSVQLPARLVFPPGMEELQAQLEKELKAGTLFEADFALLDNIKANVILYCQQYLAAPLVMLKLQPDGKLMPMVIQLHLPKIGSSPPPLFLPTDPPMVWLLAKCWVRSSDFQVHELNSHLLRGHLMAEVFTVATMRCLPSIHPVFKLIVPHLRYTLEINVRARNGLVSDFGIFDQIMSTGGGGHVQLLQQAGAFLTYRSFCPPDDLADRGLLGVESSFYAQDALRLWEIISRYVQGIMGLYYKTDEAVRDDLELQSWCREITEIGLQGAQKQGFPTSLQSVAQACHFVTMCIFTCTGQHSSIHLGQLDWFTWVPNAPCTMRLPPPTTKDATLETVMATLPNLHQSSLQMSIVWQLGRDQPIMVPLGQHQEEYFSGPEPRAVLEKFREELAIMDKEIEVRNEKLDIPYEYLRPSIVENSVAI
Description: The lipoxygenase from rabbit reticulocytes was obtained in electrophoretically and immunologically pure form according to a technique known from the literature (S. M. Rapoport et al. Methods in Enzymology 71, 430 (1981)). The determination of lipoxygenase activity follows at 25° C. through the polarographic measurement of the oxygen consumption by means of Clark Electrode in a standardized system.
Through variation of the substance concentrations, the titration curves of the inhibition and therefrom the inhibition concentrations (I-value) of the compounds can be determined.
The testing of compounds for antiasthmatic, antiallergenic, inflammation-inhibiting and antithrombotic activity on the basis on the inhibition of the lipoxygenase reaction of the arachidonic acid cascade follows in a molecular/pharmacological test system. […] The lipoxygenase from rabbit reticulocytes is obtained in electrophoretically and immunologically pure form according to the techniques described in the literature (supra). The determination of the lipoxygenase activity follows at 25° C. through the polorographic measurement of oxygen consumption by means of a Clark-electrode in the following system: 0.1M potassiumphosphate, pH 7.4, with 0.2 percent sodium cholate and 0.53 mM linoleic acid. The enzyme concentration in the measurement preparation came to 25 nM. The compounds to be tested are dissolved in methylglycol (freshly distilled in a vacuum) and pre-incubated for 15 minutes at the measuring temperature in the absence of sodium cholate and linoleic acid. […] The enzyme reaction is started by the addition of sodium cholate and linoleic acid.

IC50 ([3]; 25° C., pH 7.4, 0.53 mM linoleic acid, 15 min pre-incubation, read-out: I50) [µM] | IC84 ([3]; 25° C., pH 7.4, 0.53 mM linoleic acid, 15 min pre-incubation, read-out: I84) [µM] | Compound | activity index i50 (displacement of arachidonic acid ED50) [1] | activity index i84 (displacement of arachidonic acid ED84) [1] | IC50 [2] [µM] | IC50 [3] [µM]
2.5 | 9 | O=C(COc1ccc2ccccc2c1)NO [2(2'-naphthoxy)-acethydroxamic acid] | 5.8 | 7.1 | 2 | –
– | – | O=C(NO)c1ccccc1O [salicylhydroxamic acid] | 1.9 | 8.5 | 5 | 20
